Test system: mouse peritoneum macrophages
Assay: LPS-stimulated mouse peritoneal macrophages, cytokine analysis
Type: cell-based
Method: This example provides an […] study to determine the effect of DA on mouse peritoneum macrophages. Peritoneal exudates were obtained from Balb/c female mice by lavage 4 days after an intraperitoneal injection of 4 ml sterile 4% thioglycollate broth. After washing with RPMI 1640 medium, the cell suspensions were centrifuged at 800 g at 4° C. for 5 min. The red blood cells were eliminated by ACK buffer and the cells were washed and resuspended in RPMI 1640 supplemented with 10% inactivated FBS, 10 mM HEPES, 2 mM glutamine, and 100 U/ml penicillin-[…] streptomycin. The peritoneal macrophages were plated in 24 well tissue culture plate (2×10^5 cells/mL/well) at 37° C. in a 5% CO2 humidified atmosphere. Macrophages were precultured in serum-free RPMI 1640 medium for 24 h to reduce mitogenic effects. Macrophages were pretreated with various concentrations of DA for 1 h prior to LPS treatment and stimulated with LPS (100 ng/mL) for 24 h. Treatment groups were: Table 4 At 12 and 24 h time points of stimulation, ˜200 ul of supernatant were removed and stored (−80° C.) for cytokine analysis ([…]). Cytokines analyzed were—GM-CSF, IFNγ, IL-1a, IL-1β, IL-2, IL-4, IL-5, IL-6, IL-7, IL-10, IL-12 (p70), IL-13, IL-17A, KC/CXCL1, LIX, MCP-1, MIP-2, TNF-α,

SMILES: CC(=O)[O-].CC[N+](CC)(CC(=O)Nc1c(C)cccc1C)Cc1ccccc1 [DA, denatonium acetate]
- GM-CSF, Significance @ 24 hour LPS incubation (DA 1 μM): No sig
- IFNγ, Significance @ 24 hour LPS incubation (DA 1 μM): No sig
- IL-1α, Significance @ 24 hour LPS incubation (DA 1 μM): No sig
- IL-1β, Significance @ 24 hour LPS incubation (DA 1 μM): No sig
- IL-2, Significance @ 24 hour LPS incubation (DA 1 μM): No sig
- IL-4, Significance @ 24 hour LPS incubation (DA 1 μM): No sig
- IL-6, Significance @ 24 hour LPS incubation (DA 1 μM): No sig
- IL-7, Significance @ 24 hour LPS incubation (DA 1 μM): No sig
- IL-10, Significance @ 24 hour LPS incubation (DA 1 μM): No sig
- IL-12 (p70), Significance @ 24 hour LPS incubation (DA 1 μM): No sig
- IL-13, Significance @ 24 hour LPS incubation (DA 1 μM): No sig
- IL-17A, Significance @ 24 hour LPS incubation (DA 1 μM): No sig
- KC/CXCL1, Significance @ 24 hour LPS incubation (DA 1 μM): No sig
- LIX, Significance @ 24 hour LPS incubation (DA 1 μM): No sig
- MCP-1, Significance @ 24 hour LPS incubation (DA 1 μM): No sig
- MIP-2, Significance @ 24 hour LPS incubation (DA 1 μM): No sig
- TNF-α, Significance @ 24 hour LPS incubation (DA 1 μM): No sig
- GM-CSF, Significance @ 12 hour LPS incubation (DA 1 μM, P value): 0.029
- IFNγ, Significance @ 12 hour LPS incubation (DA 1 μM, P value): 0.031
- IL-1α, Significance @ 12 hour LPS incubation (DA 1 μM, P value): 0.021
- IL-1β, Significance @ 12 hour LPS incubation (DA 1 μM, P value): 0.023
- IL-2, Significance @ 12 hour LPS incubation (DA 1 μM, P value): 0.005
- IL-4, Significance @ 12 hour LPS incubation (DA 1 μM, P value): 0.009
- IL-6, Significance @ 12 hour LPS incubation (DA 1 μM, P value): 0.096
- IL-7, Significance @ 12 hour LPS incubation (DA 1 μM, P value): 0.024
- IL-10, Significance @ 12 hour LPS incubation (DA 1 μM, P value): 0.045
- IL-12 (p70), Significance @ 12 hour LPS incubation (DA 1 μM, P value): 0.017
- IL-13, Significance @ 12 hour LPS incubation (DA 1 μM, P value): 0.038
- IL-17A, Significance @ 12 hour LPS incubation (DA 1 μM, P value): 0.044
- KC/CXCL1, Significance @ 12 hour LPS incubation (DA 1 μM, P value): No sig
- LIX, Significance @ 12 hour LPS incubation (DA 1 μM, P value): No sig
- MCP-1, Significance @ 12 hour LPS incubation (DA 1 μM, P value): No sig
- MIP-2, Significance @ 12 hour LPS incubation (DA 1 μM, P value): 0.081
- TNF-α, Significance @ 12 hour LPS incubation (DA 1 μM, P value): 0.059
- GM-CSF, Significance @ 24 hour LPS incubation (DA 10 μM): no sig
- IFNγ, Significance @ 24 hour LPS incubation (DA 10 μM): no sig
- IL-1α, Significance @ 24 hour LPS incubation (DA 10 μM): no sig
- IL-1β, Significance @ 24 hour LPS incubation (DA 10 μM): no sig
- IL-2, Significance @ 24 hour LPS incubation (DA 10 μM): no sig
- IL-4, Significance @ 24 hour LPS incubation (DA 10 μM): no sig
- IL-6, Significance @ 24 hour LPS incubation (DA 10 μM): no sig
- IL-7, Significance @ 24 hour LPS incubation (DA 10 μM): no sig
- IL-10, Significance @ 24 hour LPS incubation (DA 10 μM): no sig
- IL-12 (p70), Significance @ 24 hour LPS incubation (DA 10 μM): no sig
- IL-13, Significance @ 24 hour LPS incubation (DA 10 μM): no sig
- IL-17A, Significance @ 24 hour LPS incubation (DA 10 μM): no sig
- KC/CXCL1, Significance @ 24 hour LPS incubation (DA 10 μM): no sig
- LIX, Significance @ 24 hour LPS incubation (DA 10 μM): no sig
- MCP-1, Significance @ 24 hour LPS incubation (DA 10 μM): no sig
- MIP-2, Significance @ 24 hour LPS incubation (DA 10 μM): no sig
- TNF-α, Significance @ 24 hour LPS incubation (DA 10 μM): no sig
- GM-CSF, Significance @ 12 hour LPS incubation (DA 10 μM, P value): no sig
- IFNγ, Significance @ 12 hour LPS incubation (DA 10 μM, P value): 0.037
- IL-1α, Significance @ 12 hour LPS incubation (DA 10 μM, P value): 0.036
- IL-1β, Significance @ 12 hour LPS incubation (DA 10 μM, P value): 0.023
- IL-2, Significance @ 12 hour LPS incubation (DA 10 μM, P value): 0.004
- IL-4, Significance @ 12 hour LPS incubation (DA 10 μM, P value): 0.009
- IL-6, Significance @ 12 hour LPS incubation (DA 10 μM, P value): 0.029
